Data on five compounds can be found in US7867980B2, “Lincosamide derivatives and antimicrobial agents comprising the same as active ingredient” (Meiji Seika Kaisha, Ltd., priority 2007, dated 2011).

What all share (assay): Antimicrobial activity, minimum growth inhibitory concentration (MIC), agar dilution
Holding throughout (format): cell-based
(In general: In agar dilution, organisms are placed on agar that contains the substance at set levels.)

One experiment relates to S. pneumoniae PRC-53. The settings on record: inoculum about 10^6 CFU/ml; for minimum growth inhibitory concentration (MIC): Sensitivity disk agar-N+5% horse blood. Here is the method: (§1) For representative compounds among lincomycin derivatives according to the present invention, the minimum growth inhibitory concentration (MIC, μg/ml) against various pneumococci was measured according to the method described in CHEMOTHERAPY, vol. […] Sensitivity disk agar-N+5% horse blood was used as the medium for the measurement. The amount of bacteria inoculated was about 10^6 CFU/ml.

For a further experiment, the system named is S. pneumoniae PRC-206. Conditions: inoculum about 10^6 CFU/ml; for minimum growth inhibitory concentration (MIC): Sensitivity disk agar-N+5% horse blood. Here is the method: as §1
A further experiment deals with S. pneumoniae DP1 TypeI. Conditions: Sensitivity disk agar-N+5% horse blood, inoculum about 10^6 CFU/ml. Here is the method: as §1
A further experiment concerns S. pneumoniae IP692. Conditions: Sensitivity disk agar-N+5% horse blood, inoculum about 10^6 CFU/ml. The procedure: as §1
Another experiment concerns S. pneumoniae 1700. Conditions: Sensitivity disk agar-N+5% horse blood, inoculum about 10^6 CFU/ml. The procedure: as §1
For another experiment, the system named is S. pneumoniae 225. The settings on record: Sensitivity disk agar-N+5% horse blood, inoculum about 10^6 CFU/ml. The procedure: as §1
For a further experiment, the system named is S. pneumoniae TH-662. Conditions: inoculum about 10^6 CFU/ml; for minimum growth inhibitory concentration (MIC): Sensitivity disk agar-N+5% horse blood. The procedure: as §1
The test system of the next experiment is S. pneumoniae 1820. Conditions: Sensitivity disk agar-N+5% horse blood, inoculum about 10^6 CFU/ml. The procedure: as §1
In another experiment the test system is S. pneumoniae 1913. The settings on record: Sensitivity disk agar-N+5% horse blood, inoculum about 10^6 CFU/ml. The procedure: as §1

Structures are written as SMILES. ≈ marks a conversion by molar mass, not a printed value.

Broadly, the MIC is the least concentration at which growth counts as inhibited. A high value points to a need for much substance. As to `CCC[C@@H]1CCN(C)[C@H](C(=O)N[C@@H](C2OC(SC)C(O)C(O)C2O)[C@H](C)Sc2ccc(-c3cncnc3)cc2)C1` (stereo partly drawn) [Compound 65], the MIC in the experiment with S. pneumoniae PRC-53 (Streptococcus pneumoniae, PRC53, Sensitivity disk agar-N+5% horse blood) was not above 0.008 µg/mL; against S. pneumoniae PRC-206 (Streptococcus pneumoniae, PRC206, Sensitivity disk agar-N+5% horse blood), 2 µg/mL (≈ 3.39 µM); in the experiment with S. pneumoniae DP1 TypeI (Streptococcus pneumoniae, DP1TYPEI), 0.015 µg/mL (≈ 0.0254 µM); with S. pneumoniae IP692 (Streptococcus pneumoniae) it was 0.015 µg/mL (≈ 0.0254 µM); against S. pneumoniae 1700 (Streptococcus pneumoniae) it was 2 µg/mL (≈ 3.39 µM); with S. pneumoniae 225 (Streptococcus pneumoniae), 4 µg/mL (≈ 6.77 µM). In addition, the MIC against S. pneumoniae TH-662 (Streptococcus pneumoniae, TH662, Sensitivity disk agar-N+5% horse blood) turned out to be 0.5 µg/mL (≈ 0.846 µM); with S. pneumoniae 1820 (Streptococcus pneumoniae), 2 µg/mL (≈ 3.39 µM); against S. pneumoniae 1913 (Streptococcus pneumoniae), 0.015 µg/mL (≈ 0.0254 µM).

As for `CCCC1CC(C(=O)NC(C(C)Sc2ccc(-c3nc(C(=O)N(C)C)cs3)cc2)C2OC(SC)C(O)C(O)C2O)N(C)C1` (stereo not drawn) [Compound 17, 7-Deoxy-7-(4-(4-(dimethylcarbamoyl)-thiazol-2-yl)phenylthio)-7-epilincomycin], the “minimum growth inhibitory concentration (MIC)” value with S. pneumoniae PRC-53 worked out at 0.015 µg/mL; in the experiment on S. pneumoniae PRC-206 it was 4 µg/mL; in the experiment with S. pneumoniae DP1 TypeI, 0.03 µg/mL; with S. pneumoniae IP692, 0.03 µg/mL; with S. pneumoniae 1700 it was 2 µg/mL; with S. pneumoniae 225 it was 32 µg/mL. Also, the “minimum growth inhibitory concentration (MIC)” value in the experiment on S. pneumoniae TH-662 was 2 µg/mL; in the experiment with S. pneumoniae 1820, 4 µg/mL; in the experiment on S. pneumoniae 1913, 0.03 µg/mL.

For the compound `CCC[C@@H]1CCN[C@H](C(=O)N[C@@H]([C@H]2O[C@H](SC)[C@H](O)[C@@H](O)[C@H]2O)[C@H](C)Sc2ccc(-c3cncnc3)cc2)C1` [Compound 59, Methyl 7-deoxy-7-epi-6-N-((2S,4R)-4-propyl)pipecoloyl-7-(4-(pyrimidin-5-yl)phenylthio)-1-thio-α-lincosamide], the “minimum growth inhibitory concentration (MIC)” value in the experiment on S. pneumoniae PRC-53 was “≦0.008 μg/ml”; in the experiment on S. pneumoniae PRC-206, 0.25 µg/mL; in the experiment with S. pneumoniae DP1 TypeI, “≦0.008 μg/ml”; in the experiment with S. pneumoniae IP692, “≦0.008 μg/ml”; in the experiment on S. pneumoniae 1700 it was 0.13 µg/mL; in the experiment on S. pneumoniae 225, 1 µg/mL. The results for the “minimum growth inhibitory concentration (MIC)” value in the experiment on S. pneumoniae TH-662, with S. pneumoniae 1820 and in the experiment on S. pneumoniae 1913 were 0.13 µg/mL, 0.25 µg/mL and 0.015 µg/mL, respectively.

Consider `CS[C@H]1O[C@H]([C@H](NC(=O)[C@@H]2C[C@H](CC3CC3)CCN2)[C@H](C)Sc2ccc(C3C=CCN(C)C3)nc2)[C@H](O)[C@H](O)[C@H]1O` (stereo partly drawn) [Compound 93, Methyl 6-N-((2S,4R)-4-cyclopropylmethyl)-pipecoloyl-7-deoxy-7-epi-7-(6-(1-methyl-1,2,3,6-tetrahydropyridin-3-yl)pyridin-3-ylthio)-1-thio-α-lincosamide], for which the “minimum growth inhibitory concentration (MIC)” value in the experiment with S. pneumoniae PRC-53 was 0.06 µg/mL; in the experiment with S. pneumoniae PRC-206, 1 µg/mL; in the experiment on S. pneumoniae DP1 TypeI, 0.06 µg/mL; with S. pneumoniae IP692, 0.13 µg/mL; with S. pneumoniae 1700, 0.5 µg/mL; with S. pneumoniae 225, 1 µg/mL. Besides, the “minimum growth inhibitory concentration (MIC)” value in the experiment on S. pneumoniae TH-662 stood at 0.5 µg/mL; in the experiment with S. pneumoniae 1820, 1 µg/mL; in the experiment with S. pneumoniae 1913, 0.13 µg/mL.

For the compound `CCC[C@@H]1C[C@@H](C(=O)N[C@@H]([C@H]2O[C@H](SC)[C@H](O)[C@@H](O)[C@H]2O)[C@H](C)Sc2ccc(-c3cncnc3)c(F)c2)N(C)C1` [Compound 3, 7-Deoxy-7-epi-7-(3-fluoro-4-(pyrimidin-5-yl)phenylthio)lincomycin], the “minimum growth inhibitory concentration (MIC)” value in the experiment with S. pneumoniae PRC-53 is “≦0.008 μg/ml”; in the experiment with S. pneumoniae PRC-206 it was 2 µg/mL; in the experiment on S. pneumoniae DP1 TypeI, 0.015 µg/mL; with S. pneumoniae IP692 it was 0.03 µg/mL; in the experiment on S. pneumoniae 1700, 2 µg/mL; in the experiment on S. pneumoniae 225, 8 µg/mL. For the same compound, the figures for the “minimum growth inhibitory concentration (MIC)” value with S. pneumoniae TH-662, in the experiment on S. pneumoniae 1820 and with S. pneumoniae 1913 were 0.25 µg/mL, 2 µg/mL and “≦0.008 μg/ml”, respectively.
